Key:
[1] = test system: zymosan-stimulated footpad edema; test: Mouse zymosan-stimulated footpad edema reaction; assay type: in vivo; conditions: ICR female mice, oral 0.1 to 500 mg/kg, compared with positive control group
Method in brief: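 Female ICR mice (6–7 weeks, n=8) dosed orally at 0.1 to 500 mg/kg in 0.5% methylcellulose; 1 h later zymosan (1 mg/ml, 0.02 ml) injected s.c. into right hind footpad. Edema volume at 1 and 2 h gave AUC to 2 h; suppression (%) calculated against positive control AUC.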

[2] = test system: IgE-stimulated footpad edema; test: Mouse IgE-stimulated footpad edema reaction; assay type: in vivo; conditions: C57BL/6 male mice, oral 0.1 to 500 mg/kg, compared with positive control group
Experimental: 4. Suppressing Effect on Mouse IgE-stimulated Footpad Edema Reaction
Suppression on footpad edema caused by IgE antibody as an allergic stimulant was studied by the following method. Groups of C57BL/6 male mice (9- to 11-week old) each consisting of five mice were used for the test. Anti-DNP-BSA IgE serum was subcutaneously administered in a volume of 20 μl to right hind leg footpad of each mouse one day before the test. A test compound was suspended or dissolved in purified water containing 0.5% methylcellulose and orally administered to the test animals at 0.1 to 500 mg/0.2 ml/kg. To the control group, purified water containing 0.5% methylcellulose was administered in a similar manner, which was not added with the test compound. Two hours after the administration of the test compound, 0.2 ml of a solution of DNP-BSA dissolved in physiological saline (Otsuka Pharmaceutical) at 2.5 μg/ml was intravenously administered. The thickness of right hind leg footpad was measured by using a digital thickness gauge (MITSUTOYO) 10, 15, 20, and 30 minutes after the administration of DNP-BSA. A difference of the thickness of footpad measured above and the thickness before the administration of the test compound measured beforehand was regarded as a thickness of edema.
For the thickness of the edema at 10, 15, 20 and 30 minutes after the DNP-BSA administration, a graph was prepared indicating time in abscissa and the edema thickness in ordinate, and edema thickness AUC […] was obtained by calculation according to the following equation. Edema thickness AUC (mm·minute)=1/2×10×A+5×(A+B)/2+5×(B+C)/2+10×(C+D)/2 • A: Edema thickness 10 minutes after DNP-BSA administration • B: Edema thickness 15 minutes after DNP-BSA administration • C: Edema thickness 20 minutes after DNP-BSA administration • D: Edema thickness 30 minutes after DNP-BSA administration
A suppressing ratio on edema of a test compound was obtained by calculation in accordance with the following equation. Edema suppression ratio (%)=[1−B/A]×100 • A: Edema thickness AUC of positive control • B: Edema thickness AUC of test compound administered group (2) Measurement Results

[3] = test system: PGE2 production from IL-1β-stimulated MG-63 cells; test: Suppressing action on PGE2 production from IL-1β-stimulated MG-63 cells; assay type: cell-based; conditions: Homo sapiens, IL-1β 1 ng/ml, 18 hours, read-out: PGE2 production suppression ratio
Method in brief: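 Human osteosarcoma MG-63 cells (2×10^4/well) switched to 0.5% FBS medium, treated with compound, then stimulated with IL-1β at 1 ng/ml final for 18 h. Supernatant PGE2 measured by EIA; suppression ratio calculated against stimulated and unstimulated wells.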

[4] = test system: PGD2 production from IgE-stimulated RBL-2H3 cells; test: Suppressing action on PGD2 production from IgE-stimulated RBL-2H3 cells; assay type: cell-based; conditions: Rattus norvegicus, 10 min, IgE/DNP-BSA stimulated RBL-2H3 cells, read-out: PGD2 production suppression ratio
Method in brief: (§1)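 Rat RBL-2H3 mastocytoma cells, sensitized 30 min with anti-DNP-BSA IgE, then given test compound in 0.5% FBS medium and stimulated with DNP-BSA (100 ng/ml final). Supernatant PGD2 and LTB4 were measured by EIA after 10 min. Suppression ratio is calculated against unstimulated and stimulant-only controls.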

[5] = test system: LTB4 production from IgE-stimulated RBL-2H3 cells; test: Suppressing action on LTB4 production from IgE-stimulated RBL-2H3 cells; assay type: cell-based; conditions: Rattus norvegicus, 10 min, IgE/DNP-BSA stimulated RBL-2H3 cells, read-out: LTB4 production suppression ratio
Method in brief: as §1

Row | Compound | suppression of footpad edema caused by zymosan [1] | suppression of footpad edema caused by IgE stimulation [2] | inhibition at 0.4 µM [3] [%] | inhibition at 0.4 µM [4] [%] | inhibition at 0.4 µM [5] [%]
1 | O=C(O)CCc1ccc(OCCOc2ccc(Cl)cc2)c(-c2ccc3[nH]ccc3c2)c1 [Compound 226, 3-{4-[2-(4-chlorophenyloxy)ethyloxy]-3-(1H-indol-5-yl)phenyl}propionic acid] | suppressed footpad edema | suppressed the footpad edema | ≥ 50 | – | –
2 | Nc1ccc2cc(-c3cc(CCC(=O)O)ccc3OCC3CCCC3)ccc2c1 [Compound 012, 3-[3-(6-aminonaphthalen-2-yl)-4-cyclopentylmethyloxyphenyl]propionic acid] | suppressed footpad edema | suppressed the footpad edema | ≥ 50 | ≥ 50 | ≥ 50
3 | O=C(O)CCc1ccc(OCCc2cccc(F)c2)c(-c2ccc3ccccc3c2)c1 [Compound 055, 3-{4-[2-(3-fluorophenyl)ethyloxy]-3-(naphthalen-2-yl)phenyl}propionic acid] | suppressed footpad edema | suppressed the footpad edema | ≥ 50 | – | –
4 | Cc1cccc(CCOc2ccc(CCC(=O)O)cc2-c2ccc3[nH]ccc3c2)c1 [Compound 202, 3-{3-(1H-indol-5-yl)-4-[2-(3-methylphenyl)ethyloxy]phenyl}propionic acid] | suppressed footpad edema | suppressed the footpad edema | ≥ 50 | – | –
5 | O=C(O)CCc1ccc(OCCSc2ccccc2)c(-c2ccc3[nH]ccc3c2)c1 [Compound 228, 3-{3-(1H-indol-5-yl)-4-[2-(phenylthio)ethyloxy]phenyl}propionic acid] | suppressed footpad edema | suppressed the footpad edema | ≥ 50 | – | –
6 | Cn1ccc2c(-c3cc(CCC(=O)O)ccc3OC3CCCCC3)cccc21 [Compound 126, 3-[4-cyclohexyloxy-3-(1-methyl-1H-indol-4-yl)phenyl]propionic acid] | suppressed footpad edema | suppressed the footpad edema | ≥ 50 | – | –
7 | Cc1ccccc1CCOc1ccc(CCC(=O)O)cc1-c1ccc2[nH]ccc2c1 [Compound 200, 3-{3-(1H-indol-5-yl)-4-[2-(2-methylphenyl)ethyloxy]phenyl}propionic acid] | suppressed footpad edema | suppressed the footpad edema | ≥ 50 | – | –
8 | O=C(O)CCc1ccc(OCc2cccc3ccccc23)c(-c2ccc3[nH]ccc3c2)c1 [Compound 190, 3-{3-(1H-indol-5-yl)-4-[(naphthalen-1-yl)methyloxy]phenyl}propionic acid] | – | suppressed the footpad edema | ≥ 50 | ≥ 50 | ≥ 50
9 | CCC(CC)COc1ccc(CCC(=O)O)cc1-c1ccc2[nH]ccc2c1 [Compound 183, 3-[4-(2-ethylbutyloxy)-3-(1H-indol-5-yl)phenyl]propionic acid] | suppressed footpad edema | suppressed the footpad edema | ≥ 50 | – | –
10 | O=C(O)CCc1ccc(OCc2ccc(Cl)c(Cl)c2)c(-c2ccc3[nH]ccc3c2)c1 [Compound 166, 3-[4-(3,4-dichlorophenylmethyloxy)-3-(1H-indol-5-yl)phenyl]propionic acid] | – | suppressed the footpad edema | ≥ 50 | ≥ 50 | ≥ 50
11 | O=C(O)CCc1ccc(OCCc2ccc3ccccc3c2)c(-c2ccc3[nH]ccc3c2)c1 [Compound 217, 3-{4-[2-(naphthalen-2-yl)ethyloxy]-3-(1H-indol-5-yl)phenyl}propionic acid] | – | suppressed the footpad edema | ≥ 50 | ≥ 50 | ≥ 50
12 | O=C(O)CCc1ccc(OCCc2ccccc2Cl)c(-c2ccc3[nH]ccc3c2)c1 [Compound 209, 3-{4-[2-(2-chlorophenyl)ethyloxy]-3-(1H-indol-5-yl)phenyl}propionic acid] | suppressed footpad edema | suppressed the footpad edema | ≥ 50 | – | –
13 | O=C(O)CCc1ccc(OCc2cccc(Cl)c2Cl)c(-c2ccc3[nH]ccc3c2)c1 [Compound 160, 3-[4-(2,3-dichlorophenylmethyloxy)-3-(1H-indol-5-yl)phenyl]propionic acid] | – | suppressed the footpad edema | ≥ 50 | ≥ 50 | ≥ 50
14 | O=C(O)CCc1ccc(OCC2CCCCC2)c(-c2cccc3[nH]ccc23)c1 [Compound 116, 3-[4-cyclohexylmethyloxy-3-(1H-indol-4-yl)phenyl]propionic acid] | suppressed footpad edema | suppressed the footpad edema | ≥ 50 | – | –
15 | O=C(O)CCc1ccc(OCc2cccc(F)c2)c(-c2ccc3ccccc3c2)c1 [Compound 033, 3-[4-(3-fluorophenylmethyloxy)-3-(naphthalen-2-yl)phenyl]propionic acid] | suppressed footpad edema | suppressed the footpad edema | ≥ 50 | – | –
16 | Nc1ccc2ccc(-c3cc(CCC(=O)O)ccc3OCC3CCCC3)cc2c1 [Compound 014, 3-[3-(7-aminonaphthalen-2-yl)-4-cyclopentylmethyloxyphenyl]propionic acid] | – | suppressed the footpad edema | ≥ 50 | ≥ 50 | ≥ 50
17 | O=C(O)CCc1ccc(OCCc2ccc(F)cc2)c(-c2ccc3ccccc3c2)c1 [Compound 057, 3-{4-[2-(4-fluorophenyl)ethyloxy]-3-(naphthalen-2-yl)phenyl}propionic acid] | suppressed footpad edema | suppressed the footpad edema | ≥ 50 | – | –
18 | O=C(O)CCc1ccc(OCCc2ccccc2C(F)(F)F)c(-c2ccc3[nH]ccc3c2)c1 [Compound 214, 3-[3-(1H-indol-5-yl)-4-{2-[2-(trifluoromethyl)phenyl]-ethyloxy}phenyl]propionic acid] | – | suppressed the footpad edema | ≥ 50 | ≥ 50 | ≥ 50
19 | O=C(O)CCc1ccc(OCc2ccccc2-c2ccccc2)c(-c2ccc3[nH]ccc3c2)c1 [Compound 140, 3-{4-[(biphenyl-2-yl)methyloxy]-3-(1H-indol-5-yl)phenyl}propionic acid] | suppressed footpad edema | suppressed the footpad edema | ≥ 50 | – | –
20 | COc1ccccc1CCOc1ccc(CCC(=O)O)cc1-c1ccc2[nH]ccc2c1 [Compound 205, 3-{3-(1H-indol-5-yl)-4-[2-(2-methoxyphenyl)ethyloxy]phenyl}propionic acid] | suppressed footpad edema | suppressed the footpad edema | ≥ 50 | – | –
